Data from ChEMBL document CHEMBL4811237, “Phenanthridine Derivative Host Heat Shock Cognate 70 Down-Regulators as Porcine Epidemic Diarrhea Virus Inhibitors” (J Nat Prod, 2021).
Activity calls are given as the source filed them. The calls are words filed in the database; no cut-off is given here.

Tests used:
[1] = test system: Porcine epidemic diarrhea virus; assay: Antiviral activity against PEDV 85-7 infected in Marc145 cells assessed as inhibition of viral replication by measuring reduction in mRNA level at 10 uM after 24 hrs by qPCR analysis; type: functional; parameters: scale not given: the % may be the effect or the level left
[2] = test system: Porcine epidemic diarrhea virus; assay: Antiviral activity against PEDV 85-7 infected in Marc145 cells assessed as down regulation of Hsc70 mRNA expression at 10 uM after 24 hrs by qPCR analysis; type: functional, organism-based
MARC145 = assay: Suppression of Hsc70 expression in African green monkey Marc145 cells assessed as Hsc70 mRNA destabilization by measuring half life at 20 uM (reference value: 6.51 hrs); type: functional, cell-based; details: Chlorocebus aethiops
[3] = Selectivity index, ratio of CC50 for cytotoxicity against African green monkey MARC145 cells to EC50 for antiviral activity against PEDV 85-7; type: toxicity, cell-based; details: read-out: Ratio CC50/EC50
[4] = test system: Porcine epidemic diarrhea virus; assay: Antiviral activity against PEDV 85-7 infected in Marc145 cells assessed as inhibition of viral transcription after 24 hrs by qPCR analysis; type: functional, organism-based; details: 85-7, MARC145, 24 h
[5] = Cytotoxicity against African green monkey MARC145 cells by CCK8 assay; type: cell-based; details: chlorocebus aethiops
[6] = test system: Porcine epidemic diarrhea virus; assay: Antiviral activity against PEDV 85-7 infected in Marc145 cells assessed as reduction in PEDV-N protein level at 10 uM by Western blotting analysis; type: functional, organism-based
[7] = test system: Porcine epidemic diarrhea virus; assay: Antiviral activity against PEDV 85-7 infected in Marc145 cells assessed as suppression of viral assembly; type: functional, organism-based
[8] = test system: Porcine epidemic diarrhea virus; assay: Antiviral activity against PEDV (NK-2) inoculated in piglets assessed as reduction in viral replication in intestine at 50 mg/kg, po administered every 24 hrs for 72 hrs by immunofluorescence assay; type: functional, organism-based
[9] = test system: Porcine epidemic diarrhea virus; assay: Antiviral activity against PEDV 85-7 infected in Marc145 cells assessed as reduction in PDEV protein level at 10 uM after 24 hrs by indirect immunofluorescence assay; type: functional, organism-based
[10] = test system: Porcine epidemic diarrhea virus; assay: Antiviral activity against PEDV 85-7 infected in Marc145 cells expressing pEGFP-N1/Hsc70 protein assessed as decrease in viral RNA level at 20 uM after 24 hrs by qPCR analysis; type: functional
[11] = test system: Porcine epidemic diarrhea virus; assay: Antiviral activity against PEDV 85-7 infected in Marc145 cells assessed as down regulation of Hsc70 protein expression after 24 hrs by Western blotting analysis; type: functional, organism-based; details: dose 0.1-10 µM
[12] = test system: Porcine epidemic diarrhea virus; assay: Antiviral activity against PEDV (NK-2) inoculated in piglets assessed as reduction in swelling sloughing and attenuation of villi at 50 mg/kg, po administered every 24 hrs for 72 hrs by HE staining based microscopic analysis; type: functional, organism-based
[13] = test system: Porcine epidemic diarrhea virus; assay: Antiviral activity against PEDV (NK-2) inoculated in piglets assessed as reduction in multifocal diffusion of villous atrophy at 50 mg/kg, po administered every 24 hrs for 72 hrs by HE staining based microscopic analysis; type: functional, organism-based
[14] = test system: Porcine epidemic diarrhea virus; assay: Antiviral activity against PEDV (NK-2) inoculated in piglets assessed as reduction in mortality at 50 mg/kg, po administered every 24 hrs for 72 hrs; type: functional, organism-based
[15] = test system: Porcine epidemic diarrhea virus; assay: Antiviral activity against PEDV 85-7 infected in Marc145 cells assessed as reduction in PEDV-N protein level by Western blotting analysis; type: functional, organism-based; details: dose 0.1-10 µM
[16] = test system: Porcine epidemic diarrhea virus; assay: Antiviral activity against PEDV 85-7 infected in Marc145 cells assessed as reduction in viral virion at 20 uM by plaque assay; type: functional, organism-based
[17] = test system: Porcine epidemic diarrhea virus; assay: Antiviral activity against PEDV (NK-2) inoculated in piglets assessed as reduction in fusion of numerous villi at 50 mg/kg, po administered every 24 hrs for 72 hrs by HE staining based microscopic analysis; type: functional, organism-based
[18] = test system: Porcine epidemic diarrhea virus; assay: Antiviral activity against PEDV 85-7 infected in Marc145 cells expressing pEGFP-N1/Hsc70 protein assessed as decrease in PEDV-N-protein level at 20 uM after 24 hrs […]; type: functional

| EC50 [4] [µM] | Structure (SMILES) | Activity [1] [%] | Activity [2] | T1/2 (MARC145) [h] | selectivity ratio [3] | CC50 [5] [µM] | Activity [6] | Activity [7] | Activity [8] | Activity [9] | fold change (FC) [10] | Activity [11] | Activity [12] | Activity [13] | Activity [14] | Activity [15] | Activity [16] | Activity [17] | fold change (FC) [18] |
| --- | --- | --- | --- | --- | --- | --- | --- | --- | --- | --- | --- | --- | --- | --- | --- | --- | --- | --- | --- |
| 3.26 | CCc1cccc2c1N(C)Cc1cc(OC(C)=O)c(OC(C)=O)cc1-2 | 70 | Active | 2.61 | > 30 | > 100 | Active |  |  |  |  |  |  |  |  |  |  |  |  |
| 0.72 | CCc1cccc2c1N(C)Cc1cc(OCc3cc(C)n(C)n3)c(OCc3cc(C)n(C)n3)cc1-2 | 70 | Active | 1.84 | > 134 | > 100 | Active | Active | Active | Active | 29.3 | Dose-Dependent Effect | Active | Active | Active | Dose-Dependent Effect | Active | Active | 20.5 |
| 1.89 | CCc1cccc2c1N(C)Cc1cc(OC)c(OC)cc1-2 | 70 | Active | 2.31 | > 53 | > 100 | Active |  | Active | Active |  |  | Active | Active | Active |  | Active | Active |  |
